Inhibition data for 15 molecules are collected here from PubChem BioAssay AID463094 (The Scripps Research Institute Molecular Screening Center, 2010).

Calls of active or inactive are those of the source.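 Rule for the calls: active = inhibition at or above 90%; inactive = inhibition below 90%.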

This assay has as its target Glutathione S-transferase omega-1 (Homo sapiens) (UniProt P78417). Kind of assay: cellular GSTO1 activity blockade by competitive ABPP – cell-based, MDA-MB-435, in-gel fluorescence, late-stage follow-up (AID 463094). The following applies: MDA-MB-435 in situ, 1 h, at 1 µM, active compounds read high.

Chain of Glutathione S-transferase omega-1 (Homo sapiens) (P78417 whole entry, looked up): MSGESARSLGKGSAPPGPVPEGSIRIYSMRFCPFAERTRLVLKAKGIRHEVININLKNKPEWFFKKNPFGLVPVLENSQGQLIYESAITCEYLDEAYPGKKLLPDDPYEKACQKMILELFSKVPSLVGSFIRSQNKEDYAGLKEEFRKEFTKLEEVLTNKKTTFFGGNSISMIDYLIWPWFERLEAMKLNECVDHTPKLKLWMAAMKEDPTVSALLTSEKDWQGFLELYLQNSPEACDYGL

One may read the inhibition as the relative decrease from the control value, in per cent. With `O=C(NC1CCCCC1)C(c1cccnc1)N(C(=O)CCl)c1cccc(Cl)c1` (stereo not given), the inhibition was 100%.
Take `C#CCCCCNC(=O)C(c1cccnc1)N(C(=O)CCl)c1ccc(F)cc1` (stereo not given): the inhibition was 95%.
Turning to `O=C(NC1CCCCC1)C(c1cccnc1)N(C(=O)CCl)c1ccc(F)cc1` (stereo not given), the inhibition was 100%.
`COc1ccc(C(C(=O)NC2CCCCC2)N(C(=O)CCl)c2ccc(Cl)cc2)cc1` (stereo not given): the inhibition is 60% (inactive).
With `O=S(=O)(c1ccc(Cl)cc1)N1CCC2(CC1)CO2`, the inhibition was 17% (inactive).
The value for `CCOC(=O)c1sc(N(Cc2ccccc2)C(=O)CCl)nc1C` was 65% (inactive).
In the case of `C#CCNC(=O)C(c1ccc(OC)cc1)N(C(=O)CCl)c1ccc(Cl)cc1` (stereo not given), the inhibition was 30% (inactive).
Take `C#CCN(CCCN(C(=O)CCl)c1ccc([N+](=O)[O-])cc1)C(=O)C(F)(F)F`: the inhibition is 100%.
Next, `C#CCCCCNC(=O)C(c1ccc(OC)cc1)N(C(=O)CCl)c1cccc(Cl)c1` (stereo not given): 90%; `COc1ccc(C(C(=O)NC2CCCCC2)N(C(=O)CCl)c2cccc(Cl)c2)cc1` (stereo not given): 100%; `C#CCCC(=O)NCCCN(C(=O)CCl)c1ccc([N+](=O)[O-])cc1`: 97%.
On to `Cc1cccc(CN2CCN(C(=O)CCl)CC2)c1`, for which the inhibition was 53% (inactive).
Consider `COc1ccc(N(C(=O)CCl)C(C(=O)NCCc2ccccc2)c2cccs2)cc1Cl` (stereo not given), for which the inhibition was 95%.
On to `COc1ccc(N(C(=O)CCl)C(C(=O)NC2CCCCC2)c2cccnc2)cc1` (stereo not given), for which the inhibition is 95%.
In the case of `C#CCNC(=O)C(c1ccc(OC)cc1)N(C(=O)CCl)c1cccc(Cl)c1` (stereo not given), the inhibition was 77% (inactive).
